{"source": "patent US11214787B2", "about": "“Modified beta-lactamases and methods and uses related thereto” (priority 2010, dated 2022)", "type": "in vivo", "details": "beagle dogs; single dose ceftriaxone 30 mg/kg i.v., without beta-lactamase", "method": "The capability of Bacillus licheniformis D276N mutant beta-lactamase enzyme to inactivate ceftriaxone (CRO) which has been excreted into the gastrointestinal tract during parenteral therapy was investigated in a dog model. Laboratory beagles of the study have a nipple valve surgically inserted in jejunum approximately 170 cm distal to pylorus enabling collection of samples for the analysis. […] Five beagle dogs were utilized in each experiment.\nThe study was performed as two sequential treatments: In the first treatment (control experiment without beta-lactamase therapy), a single dose of ceftriaxone (30 mg of ceftriaxone (CRO) per kg of body weight which corresponds to about 1 gram dose of CRO in humans) was administered intravenously minutes after the first feeding of the dogs. Jejunal samples were collected at various time points during ten hours. The dogs were fed again five hours and forty minutes after the ceftriaxone administration in order to induce the biliary excretion of ceftriaxone accumulated in gallbladder.\nJejunal chyme samples were immediately freezed and stored at −20° C. to await the analysis. Chyme samples were pretreated with perchloric-citric acid in order to precipitate interfering substances. […] A reverse-phase high-pressure chromatography method with UV detection was used for the quantification of ceftriaxone in supernatants. […]", "data": [{"molecule": "CO/N=C(\\C(=O)N[C@@H]1C(=O)N2C(C(=O)O)=C(CSc3nc(=O)c(=O)[nH]n3C)CS[C@H]12)c1csc(N)n1", "note": "[ceftriaxone]", "values": [{"measurement": "highest jejunal ceftriaxone concentration", "result": "about 1500 micrograms per gram of jejunal chyme"}, {"measurement": "time of highest jejunal ceftriaxone concentration after injection", "result": 60, "unit": "min"}]}]}
